# Results: paper PMC4019984, “Kinase and channel activity of TRPM6 are co-ordinated by a dimerization motif and pocket interaction” (Biochemical Journal, 2014)
# T1: TRPM6-(1730–end) (Homo sapiens, UniProt Q9BX84)
# T1 construct: expressed in transfected cells; host or cells: HEK-293
# T1 sequence (Q9BX84 1730-2022 limits assumed): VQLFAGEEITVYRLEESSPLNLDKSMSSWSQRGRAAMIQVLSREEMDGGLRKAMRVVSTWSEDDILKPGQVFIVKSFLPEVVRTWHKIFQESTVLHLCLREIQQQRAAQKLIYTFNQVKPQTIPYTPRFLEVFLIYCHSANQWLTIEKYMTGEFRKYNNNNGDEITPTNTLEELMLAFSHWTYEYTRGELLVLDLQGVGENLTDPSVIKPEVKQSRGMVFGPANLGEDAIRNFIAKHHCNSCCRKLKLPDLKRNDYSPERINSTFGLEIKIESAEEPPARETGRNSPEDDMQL
# T2: GST-tagged TRPM6-(1730–end) (Homo sapiens, UniProt Q9BX84)
# T2 construct: E. coli-purified GST-tagged TRPM6-(1730–end); made in house; host or cells: E. coli BL21
# T2 sequence (Q9BX84 1730-2022 limits assumed): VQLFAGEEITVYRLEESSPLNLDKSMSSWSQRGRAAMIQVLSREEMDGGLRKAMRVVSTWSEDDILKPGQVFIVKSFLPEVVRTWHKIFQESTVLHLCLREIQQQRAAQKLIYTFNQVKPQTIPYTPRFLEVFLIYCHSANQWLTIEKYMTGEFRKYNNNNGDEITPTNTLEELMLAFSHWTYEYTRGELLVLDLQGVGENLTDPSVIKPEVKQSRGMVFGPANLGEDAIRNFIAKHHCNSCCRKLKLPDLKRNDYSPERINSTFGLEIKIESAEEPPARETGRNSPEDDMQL
# T3: GST-tagged TRPM6-(1730–end), E. coli-purified, Q9BX84
# T3 chain: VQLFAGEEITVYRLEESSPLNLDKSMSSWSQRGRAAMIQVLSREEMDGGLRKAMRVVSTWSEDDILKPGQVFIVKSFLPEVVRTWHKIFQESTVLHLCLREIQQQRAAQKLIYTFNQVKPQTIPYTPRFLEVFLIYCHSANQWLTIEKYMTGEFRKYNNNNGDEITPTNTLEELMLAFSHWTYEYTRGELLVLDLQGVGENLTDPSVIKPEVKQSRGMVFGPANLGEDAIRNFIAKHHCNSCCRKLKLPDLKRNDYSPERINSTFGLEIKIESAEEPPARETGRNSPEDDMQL
# Assays:
# [1] = biological target: T1, TRPM6-(1730–end); test: Kinase activation assay (MBP substrate), TRPM6-(1730–end); assay type: biochemical; settings: FLAG-tagged TRPM6-(1730–end) immunoprecipitated from HEK-293; MBP 1 μg, 0.1 mM [γ-32P]ATP, 10 mM MgCl2, 30 min at 30°C; increasing peptide concentrations; read-out: half-maximal activation
# Method: In assays using E. coli-expressed TRPM6, reactions were set up in a volume of 20 μl, with substrate MBP (myelin basic protein) at 1 μg and kinase at 0.1–10 μg in buffer A containing 0.1% 2-mercaptoethanol, 10 mM MgCl2 and 0.1 mM [γ-^32P]ATP (~1000 cpm·pmol^−1). Assays were carried out for 30 min at 30°C with shaking at 1000 rev./min and terminated by addition of SDS sample buffer. […] Proteins were detected by Coomassie Blue staining and gels were imaged using an Epson scanner and dried completely using a gel dryer (Bio-Rad Laboratories). Incorporation of [γ-^32P]ATP into substrates was analysed by autoradiography using Hyperfilm (GE Healthcare) or quantified by Cerenkov counting.
# Figure 2 Identification of dimerization motif residues in TRPM6 (A) Structural model of TRPM7 α-kinase depicting the N-terminal non-catalytic α-helix of one monomer that interacts with the kinase segment of the other monomer. (B) Fluorescence polarization analysis of wild-type (WT) and mutant (Mut) dimerization motif peptides with E. coli-purified GST-tagged TRPM6-(1730–end). […] The samples were analysed by immunoblotting with anti-GST antibody (top panel). […] Proteins were separated by SDS/PAGE, stained with Coomassie Blue (top and middle gels) and MBP phosphorylation was detected by autoradiography (bottom gel). […] The pull-down samples were analysed by immunoblotting with anti-FLAG antibody (top panel). […]
# [2] = biological target: T2, GST-tagged TRPM6-(1730–end); test: Fluorescence polarization binding assay, TRPM6-(1730–end); settings: 100 nM labelled peptide, increasing concentrations of TRPM6-(1730–end), pH 7.5, room temperature
# Method: The peptides used for the assay contained a C-terminal linker leading to the peptides […] (wild-type) and […] (mutant). The peptides were labelled with Lumio Green (Invitrogen) following the manufacturer's protocol. Fluorescence polarization measurements were performed at room temperature in buffer containing 25 mM Tris/HCl (pH 7.5), 200 mM NaCl and 5 mM 2-mercaptoethanol. Binding assays were performed by combining 100 nM labelled peptide with increasing concentrations of TRPM6 kinase, in a total volume of 30 μl of buffer, and end-point polarization measurements were made using the BMG PheraStar plate reader. The polarization values were measured at an excitation wavelength of 485 nm and an emission wavelength of 538 nm, and were corrected for fluorescent probe alone. At least ten data points were measured for each curve, and each data point was measured in duplicate. Data were analysed using GraphPad Prism 5 and curve-fitting of the data from two independent experiments was performed with one-site specific binding with Hill slope [model Y=BmaxX^h/(Kd^h+X^h)] to determine Kd values.
# (Figure 2A). We next utilized fluorescence polarization technology, a sensitive method to evaluate interactions between proteins and peptides. […]
# [3] = biological target: T3, GST-tagged TRPM6-(1730–end), E. …; test: fluorescence polarisation; settings: chain shown with the change; read at the highest titration point, 2.5 µM TRPM6-(1730-end); parent: est. 94; read off a plot
molecule,measurement,setting,value
CC[C@H](C)[C@H](NC(=O)[C@H](C)NC(=O)[C@H](CO)NC(=O)[C@H](Cc1ccc(O)cc1)NC(=O)[C@H](Cc1c[nH]cn1)NC(=O)[C@H](Cc1c[nH]cn1)NC(=O)[C@H](Cc1c[nH]cn1)NC(=O)[C@@H]1CCCN1C(=O)[C@H](CCC(=O)O)NC(=O)[C@H](CCC(N)=O)NC(=O)[C@@H]1CCCN1C(=O)[C@H](CO)NC(=O)[C@H](CCCCN)NC(=O)[C@@H](N)CC(C)C)C(=O)N[C@@H](CCC(=O)O)C(=O)N[C@@H](CCCNC(=N)N)C(=O)N[C@@H](CC(N)=O)C(=O)N[C@@H](CC(N)=O)C(=O)N[C@@H](CC(C)C)C(=O)N[C@@H](CCSC)C(=O)N[C@@H](CCCNC(=N)N)C(=O)N[C@@H](CC(C)C)C(=O)N[C@@H](CO)C(=O)N[C@@H](CCC(N)=O)C(=O)N[C@H](C(=O)N[C@H](C(=O)N1CCC[C@H]1C(=O)N[C@@H](Cc1ccccc1)C(=O)N[C@H](C(=O)N1CCC[C@H]1C(=O)N[C@H](C(=O)N[C@@H](CCC(N)=O)C(=O)N[C@@H](CC(C)C)C(=O)N[C@@H](Cc1ccccc1)C(=O)N[C@@H](C)C(=O)NCC(=O)N[C@@H](CCC(=O)O)C(=O)N[C@@H](CCC(=O)O)C(=O)N[C@H](C(=O)N[C@H](C(=O)N[C@H](C(=O)O)C(C)C)[C@@H](C)O)[C@@H](C)CC)C(C)C)[C@@H](C)O)[C@@H](C)CC)[C@@H](C)O [dimerization motif peptide],EC50,[1],~15 µM
"LKSPQEPHHHYSAIERNNAMRASQTIPFTPVQLFAGEEITVGGCCPGCC [mutant dimerization motif peptide, mutant (L1718A+L1721A) dimerization motif peptide with C-terminal linker, labelled with Lumio Green]",fluorescence polarization increase (binding),[2],only background increases in fluorescence polarization were observed
LKSPQEPHHHYSAIERNNAMRASQTIPFTPVQLFAGEEITVGGCCPGCC,response,[3],24 mP
